Experimental data from US12083101B2, “Biaryl derivatives as YAP/TAZ-TEAD protein-protein interaction inhibitors” (Novartis AG, priority 2020, dated 2024).

Columns and labels:
[1] = target: Avi-humanTEAD4 217-434 / Cy5 labeled humanYAP 60-100 (Homo sapiens (Human), UniProt Q15561); test: TR-FRET YAP-TEAD4 in-vitro biochemical assay; type: binding; details: 1 nM Avi-humanTEAD4 217-434, 20 nM Cy5-humanYAP 60-100, 1 h room temperature
[2] = test system: NCI-H2052 Tet-On shYAP_2371 pLenti6 MCAT_Luc cells (YAP-dependent transcription); test: YAP reporter gene activity assay (MCAT-luciferase), NCI-H2052; type: cell-based; details: Homo sapiens, NCI-H2052, 24 h, 24 hours incubation, BrightGlo luminescence
How it was run: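 Luminescence was read 5 min after BrightGlo, following 24 h at 37 °C of compound exposure (eleven 2-fold dilutions, DMSO normalized to 0.1%). Cells were NCI-H2052 with a YAP-responsive MCAT-luciferase and a Tet-inducible shRNA against YAP1 3′UTR. Cell-free background was removed, values were normalized to vehicle, and IC50 was fitted with four parameters.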

[3] = test system: NCI-H2052 Tet-On shYAP_2371 pLenti6 MCAT_Luc cells; test: Proliferation assay (resazurin), NCI-H2052; type: cell-based; details: Homo sapiens, NCI-H2052, 72 h, 72 hours incubation
How it was run: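 The NCI-H2052 line carries a Tet-inducible shRNA against the YAP1 3′UTR and an MCAT luciferase reporter. The day after seeding, it received eleven 2-fold compound dilutions at 0.1% DMSO, and viability was read by resazurin fluorescence.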

MKN-45/Ubc-luc cells [4] = test: Proliferation assay (resazurin), MKN-45; type: cell-based; details: Homo sapiens, 72 hours incubation
MKN-45/Ubc-luc cells [5] = test: Reporter gene specificity control (Ubc-luciferase), MKN-45; details: Homo sapiens, MKN-45, 24 h, read-out: Reporter gene assay MKN-45 IC50 [μM], MKN-45/Ubc-luc cells (YAP deleted, specificity control), 24 hours incubation
Protocol: As a specificity control, MKN-45 cells were stably transduced with a Ubc-Luc reporter construct, in which constitutive expression of firefly luciferase is driven by the promoter of the ubiquitin C housekeeping gene.
Stock solutions of compounds were prepared at a concentration of 10 mM in DMSO and stored at 4° C. Where necessary to afford a full dose-response curve, the stock solutions were pre-diluted in DMSO to 1'000-fold the desired reduced start concentration. On the day after cell seeding, eleven 2-fold serial dilutions of each compound were dispensed directly into the cell assay plates using a HP 300D non-contact Digital Dispenser (TECAN, Mannedorf, Switzerland). The final concentration of DMSO was normalized to 0.1% in all wells.
The ability of compounds to inhibit YAP-dependent transcription was assessed in NCI-H2052 Tet-On shYAP_2371 pLenti6 MCAT_Luc cells, while specificity (lack of unspecific inhibition of luciferase expression of activity) was assessed in MKN-45/Ubc-luc cells. […] Following incubation for 24 hours at 37° C., compound-mediated modulation of reporter-gene activity was quantified 5 min after addition of 20 μl BrightGlo (Promega, Cat #E2620), by measuring luminescence intensity on a multi-mode plate-reader (TECAN, Männedorf, Switzerland, Integration time 100 ms). For data analysis, the assay background value determined in wells containing medium, but no cells, was subtracted from all data points. Dose-dependent compound effects were expressed as % of vehicle-treated control (luminescence signal produced by cells receiving DMSO only) and IC50s calculated using a four-parametric fit model.

Avi-humanTEAD4 217-434 / Cy5 labeled humanYAP 60-100, sequence (Q15561 217-434): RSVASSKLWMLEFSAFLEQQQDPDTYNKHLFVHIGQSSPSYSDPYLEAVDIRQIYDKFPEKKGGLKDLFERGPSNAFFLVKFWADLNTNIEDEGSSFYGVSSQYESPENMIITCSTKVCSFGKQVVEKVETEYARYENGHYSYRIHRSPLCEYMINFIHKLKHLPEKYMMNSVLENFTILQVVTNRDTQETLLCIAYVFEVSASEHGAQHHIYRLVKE

IC50 [1]	IC50 [2]	GI50 [3]	GI50 (MKN-45/Ubc-luc cells [4])	IC50 (MKN-45/Ubc-luc cells [5])	Compound
< 1 nM	15 nM	14 nM	> 10000 nM	> 10 µM	C[C@H]1c2c(cc(F)c(Cl)c2-c2c(C(N)=O)ccc(OCCO)c2F)O[C@]1(CN[C@H]1CC[C@](C)(O)CC1)c1ccccc1 (atropisomer, axis not shown) [Example 117a, 2-((2S,3S,4S)-5-chloro-6-fluoro-2-((((trans)-4-hydroxy-4-methylcyclohexyl)amino)methyl)-3-methyl-2-phenyl-2,3-dihydrobenzofuran-4-yl)-3-fluoro-4-(2-hydroxyethoxy)benzamide]
1 nM	16 nM	30 nM	> 10000 nM	> 10 µM	C[C@H]1c2c(cc(F)c(Cl)c2-c2c(C(N)=O)ccc(OCCO)c2F)O[C@]1(CN[C@H]1CC[C@@](C)(O)CC1)c1ccccc1 (atropisomer, axis not shown) [Example 117b, 2-((2S,3S,4S)-5-chloro-6-fluoro-2-((((cis)-4-hydroxy-4-methylcyclohexyl)amino)methyl)-3-methyl-2-phenyl-2,3-dihydrobenzofuran-4-yl)-3-fluoro-4-(2-hydroxyethoxy)benzamide]
1 nM	10 nM	15 nM	> 5500 nM	> 5.5 µM	C[C@H]1c2c(cc(F)c(Cl)c2-c2c(C(N)=O)ccc(OCCO)c2F)O[C@]1(CNC1CCC1)c1ccccc1 (atropisomer, axis not shown) [Example 118, 2-((2S,3S,4S)-5-chloro-2-((cyclobutylamino)methyl)-6-fluoro-3-methyl-2-phenyl-2,3-dihydrobenzofuran-4-yl)-3-fluoro-4-(2-hydroxyethoxy)benzamide]
2 nM	22 nM	28 nM	> 10000 nM	> 10 µM	C[C@H]1c2c(cc(F)c(Cl)c2-c2c(C(N)=O)cnc(OCCO)c2F)O[C@]1(CN[C@H]1CC[C@](C)(O)CC1)c1ccccc1 (atropisomer, axis not shown) [Example 119]
3 nM	20 nM	22 nM	> 10000 nM	> 10 µM	C[C@H](O)COc1ccc(C#N)c(-c2c(Cl)c(F)cc3c2[C@H](C)[C@@](CN[C@H]2CC[C@](C)(O)CC2)(c2ccccc2)O3)c1F (atropisomer, axis not shown) [Example 120, 2-((2S,3S,4S)-5-Chloro-6-fluoro-2-((((trans)-4-hydroxy-4-methylcyclohexyl)amino)methyl)-3-methyl-2-phenyl-2,3-dihydrobenzofuran-4-yl)-3-fluoro-4-((S)-2-hydroxypropoxy)benzonitrile]
2 nM	20 nM	36 nM	> 10000 nM	> 10 µM	CNC(=O)c1ccc(OCCO)c(F)c1-c1c(Cl)c(F)cc2c1[C@H](C)[C@@](CN[C@H]1CC[C@](C)(O)CC1)(c1ccccc1)O2 (atropisomer, axis not shown) [Example 121, 2-((2S,3S,4S)-5-Chloro-6-fluoro-2-((((trans)-4-hydroxy-4-methylcyclohexyl)amino)methyl)-3-methyl-2-phenyl-2,3-dihydrobenzofuran-4-yl)-3-fluoro-4-(2-hydroxyethoxy)-N-methylbenzamide]
6 nM	85 nM	59 nM	> 10000 nM	> 10 µM	CNC[C@]1(c2ccccc2)Oc2cc(F)c(Cl)c(-c3c(C(=O)NC)ccc(OC[C@H](C)O)c3F)c2[C@@H]1C (atropisomer, axis not shown) [Example 122, 2-((2S,3S,4S)-5-Chloro-6-fluoro-3-methyl-2-((methylamino)methyl)-2-phenyl-2,3-dihydrobenzofuran-4-yl)-3-fluoro-4-((S)-2-hydroxypropoxy)-N-methylbenzamide]
2 nM	25 nM	44 nM	> 10000 nM	> 10 µM	C[C@H](O)COc1ccc(C(N)=O)c(-c2c(Cl)c(F)cc3c2[C@H](C)[C@@](CN)(c2ccccc2)O3)c1F (atropisomer, axis not shown) [Example 123, 2-((2S,3S,4S)-2-(Aminomethyl)-5-chloro-6-fluoro-3-methyl-2-phenyl-2,3-dihydrobenzofuran-4-yl)-3-fluoro-4-((S)-2-hydroxypropoxy)benzamide]
11 nM	1230 nM	1070 nM	> 10000 nM	> 10 µM	C[C@H]1c2c(cc(F)c(Cl)c2-c2c(OCCO)ccc(F)c2F)O[C@]1(CN)c1ccccc1 (atropisomer, axis not shown) [Example 124, 2-(2-((2S,3S,4S)-2-(Aminomethyl)-5-chloro-6-fluoro-3-methyl-2-phenyl-2,3-dihydrobenzofuran-4-yl)-3,4-difluorophenoxy)ethan-1-ol]
11 nM	671 nM	1180 nM	> 7500 nM	> 10 µM	CNC[C@]1(c2cccc(O)n2)Oc2cc(F)c(Cl)c(-c3c(C(N)=O)ccc(OC)c3F)c2[C@@H]1C (atropisomer, axis not shown) [Example 125, 2-((2R,3S,4S)-5-Chloro-6-fluoro-2-(6-hydroxypyridin-2-yl)-3-methyl-2-((methylamino)methyl)-2,3-dihydrobenzofuran-4-yl)-3-fluoro-4-methoxybenzamide]
2 nM	45 nM	76 nM	> 10000 nM	> 10 µM	COCCOc1ccc(C(N)=O)c(-c2c(Cl)c(F)cc3c2[C@H](C)[C@@](CN[C@H]2CC[C@](C)(O)CC2)(c2ccccn2)O3)c1F (atropisomer, axis not shown) [Example 126, 2-((2R,3S,4S)-5-Chloro-6-fluoro-2-((((trans)-4-hydroxy-4-methylcyclohexyl)amino)methyl)-3-methyl-2-(pyridin-2-yl)-2,3-dihydrobenzofuran-4-yl)-3-fluoro-4-(2-methoxyethoxy)benzamide]
6 nM	65 nM	141 nM	> 10000 nM	> 10 µM	COc1ccc(C(N)=O)c(-c2c(Cl)c(F)cc3c2[C@H](C)[C@@](CN[C@H]2CC[C@](C)(O)CC2)(c2cccnc2)O3)c1F (atropisomer, axis not shown) [Example 127, 2-((2S,3S,4S)-5-Chloro-6-fluoro-2-((((trans)-4-hydroxy-4-methylcyclohexyl)amino)methyl)-3-methyl-2-(pyridin-3-yl)-2,3-dihydrobenzofuran-4-yl)-3-fluoro-4-methoxybenzamide]
176 nM	5720 nM	7050 nM	> 10000 nM	> 10 µM	COc1ccc(C(N)=O)c(-c2c(C(F)(F)F)ccc3c2C[C@@](CN)(c2ccccc2)O3)c1 (atropisomer, axis not shown) [Example 128, 2-((2S,4R)-2-(Aminomethyl)-2-phenyl-5-(trifluoromethyl)-2,3-dihydrobenzofuran-4-yl)-4-methoxybenzamide]
25 nM	615 nM	892 nM	> 10000 nM	> 10 µM	CNC(=O)c1ccc(OC)c(F)c1-c1c(C#N)ccc2c1C[C@@](CN[C@H]1CC[C@](C)(O)CC1)(c1ccccc1)O2 (atropisomer, axis not shown) [Example 129, 2-((2S,4R)-5-Cyano-2-((((trans)-4-hydroxy-4-methylcyclohexyl)amino)methyl)-2-phenyl-2,3-dihydrobenzofuran-4-yl)-3-fluoro-4-methoxy-N-methylbenzamide]
74 nM	2310 nM	1570 nM	> 10000 nM	> 10 µM	NC[C@@]1(c2ccccc2)Cc2c(cc(F)c(Cl)c2-c2c(F)cccc2C(N)=O)N1 (atropisomer, axis not shown) [Example 134, 2-((2S,4S)-2-(aminomethyl)-5-chloro-6-fluoro-2-phenylindolin-4-yl)-3-fluorobenzamide]
7 nM	247 nM	627 nM	8640 nM	> 10 µM	NC(=O)c1ccc(OC(F)F)c(F)c1-c1c(Cl)ccc2c1C[C@@](CNC1CCCCC1)(c1ccccc1)O2 (atropisomer, axis not shown) [Example 135, 2-((2S,4S)-5-Chloro-2-((cyclohexylamino)methyl)-2-phenyl-2,3-dihydrobenzofuran-4-yl)-4-(difluoromethoxy)-3-fluorobenzamide]
2 nM	10 nM	10 nM	> 8000 nM	> 8 µM	CNC[C@]1(c2ccccc2)Oc2cc(F)c(Cl)c(-c3c(C(N)=O)ccc(OC)c3F)c2[C@@H]1C (atropisomer, axis not shown) [Example 144, 2-((2S,3S,4S)-5-Chloro-6-fluoro-3-methyl-2-((methylamino)methyl)-2-phenyl-2,3-dihydrobenzofuran-4-yl)-3-fluoro-4-methoxybenzamide]
